Test results from ChEMBL document CHEMBL3352322, “Synthesis and biological evaluation of 3-phenethylazetidine derivatives as triple reuptake inhibitors” (Bioorg Med Chem Lett, 2014).

Legend:
[1] = molecular target: T1, Sodium-dependent serotonin transporter (Homo sapiens, UniProt P31645); details: HEK293, at 0.1 µM
Target sequence in this assay (P31645 whole entry, looked up): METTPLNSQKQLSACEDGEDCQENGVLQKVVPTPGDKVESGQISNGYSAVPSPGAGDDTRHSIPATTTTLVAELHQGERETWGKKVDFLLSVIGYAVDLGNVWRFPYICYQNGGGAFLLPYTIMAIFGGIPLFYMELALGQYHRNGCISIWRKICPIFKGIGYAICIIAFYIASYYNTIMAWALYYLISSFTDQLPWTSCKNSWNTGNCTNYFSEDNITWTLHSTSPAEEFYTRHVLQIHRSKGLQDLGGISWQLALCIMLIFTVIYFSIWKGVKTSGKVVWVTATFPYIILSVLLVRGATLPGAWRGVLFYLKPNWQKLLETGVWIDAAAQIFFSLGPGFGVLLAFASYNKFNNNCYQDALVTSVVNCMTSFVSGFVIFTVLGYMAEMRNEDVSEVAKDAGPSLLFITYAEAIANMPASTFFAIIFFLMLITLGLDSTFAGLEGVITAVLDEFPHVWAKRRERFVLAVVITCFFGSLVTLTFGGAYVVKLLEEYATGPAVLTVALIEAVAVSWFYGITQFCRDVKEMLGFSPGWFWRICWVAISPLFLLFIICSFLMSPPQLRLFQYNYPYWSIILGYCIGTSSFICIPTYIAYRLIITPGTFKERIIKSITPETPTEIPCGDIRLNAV

[2] = molecular target: CYP2C9 (Homo sapiens, UniProt P11712); experiment: in vitro; details: recombinant CYP2C9
[3] = molecular target: T1, Sodium-dependent serotonin transporter; details: HEK293, at 1 µM
Target sequence in this assay (P31645 whole entry, looked up): as above

[4] = molecular target: T1, Sodium-dependent serotonin transporter; details: HEK293, at 10 µM
Target sequence in this assay (P31645 whole entry, looked up): as above

[5] = Stability in human liver microsomes assessed as compound remaining at 1 uM after 30 mins by LC/MS analysis; assay type: ADME; details: read-out: Stability
[6] = molecular target: T1, Sodium-dependent serotonin transporter; experiment: Ratio of duloxetine IC50 to compound IC50 for serotonin reuptake at human SERT expressed in HEK293 cells at 0.1 uM after 15 mins by fluorescence neurotransmitter transporter assay; assay type: cell-based
Target sequence in this assay (P31645 whole entry, looked up): as above

[7] = molecular target: T2, Sodium-dependent noradrenaline transporter (Homo sapiens, UniProt P23975); experiment: Ratio of duloxetine IC50 to compound IC50 for norepinephrine reuptake at human NET expressed in HEK293 cells at 0.1 uM after 15 mins by fluorescence neurotransmitter transporter assay; assay type: cell-based
T2 sequence (P23975 whole entry): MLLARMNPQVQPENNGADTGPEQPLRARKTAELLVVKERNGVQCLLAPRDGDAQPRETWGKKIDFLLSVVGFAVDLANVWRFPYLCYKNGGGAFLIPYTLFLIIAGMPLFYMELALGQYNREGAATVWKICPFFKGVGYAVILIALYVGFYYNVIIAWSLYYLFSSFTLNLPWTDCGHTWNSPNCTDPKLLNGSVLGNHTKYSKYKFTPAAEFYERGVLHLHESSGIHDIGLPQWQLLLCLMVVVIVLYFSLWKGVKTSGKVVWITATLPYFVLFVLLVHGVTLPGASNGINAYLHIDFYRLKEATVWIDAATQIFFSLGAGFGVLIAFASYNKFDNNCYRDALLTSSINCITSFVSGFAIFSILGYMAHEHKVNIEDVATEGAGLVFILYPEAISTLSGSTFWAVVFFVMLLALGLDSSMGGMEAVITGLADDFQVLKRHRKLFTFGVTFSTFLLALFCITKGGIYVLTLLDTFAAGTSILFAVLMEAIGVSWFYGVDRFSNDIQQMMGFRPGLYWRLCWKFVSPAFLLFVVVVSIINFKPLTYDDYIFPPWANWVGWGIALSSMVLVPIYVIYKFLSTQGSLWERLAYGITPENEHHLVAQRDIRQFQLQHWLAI

[8] = molecular target: T2, Sodium-dependent noradrenaline transporter; experiment: Ratio of venlafaxine IC50 to compound IC50 for norepinephrine reuptake at human NET expressed in HEK293 cells at 0.1 uM after 15 mins by fluorescence neurotransmitter transporter assay; assay type: cell-based
[9] = molecular target: T2, Sodium-dependent noradrenaline transporter
[10] = molecular target: T1, Sodium-dependent serotonin transporter; assay type: cell-based, HEK293
Target sequence in this assay (P31645 whole entry): as the sequence (P31645 whole entry, looked up) above

[11] = molecular target: T1, Sodium-dependent serotonin transporter; experiment: Ratio of venlafaxine IC50 to compound IC50 for serotonin reuptake at human SERT expressed in HEK293 cells at 0.1 uM after 15 mins by fluorescence neurotransmitter transporter assay; assay type: cell-based
Target sequence in this assay (P31645 whole entry, looked up): as above

[12] = molecular target: Sodium-dependent dopamine transporter (Homo sapiens, UniProt Q01959)
Chain of Sodium-dependent dopamine transporter (Q01959 whole entry): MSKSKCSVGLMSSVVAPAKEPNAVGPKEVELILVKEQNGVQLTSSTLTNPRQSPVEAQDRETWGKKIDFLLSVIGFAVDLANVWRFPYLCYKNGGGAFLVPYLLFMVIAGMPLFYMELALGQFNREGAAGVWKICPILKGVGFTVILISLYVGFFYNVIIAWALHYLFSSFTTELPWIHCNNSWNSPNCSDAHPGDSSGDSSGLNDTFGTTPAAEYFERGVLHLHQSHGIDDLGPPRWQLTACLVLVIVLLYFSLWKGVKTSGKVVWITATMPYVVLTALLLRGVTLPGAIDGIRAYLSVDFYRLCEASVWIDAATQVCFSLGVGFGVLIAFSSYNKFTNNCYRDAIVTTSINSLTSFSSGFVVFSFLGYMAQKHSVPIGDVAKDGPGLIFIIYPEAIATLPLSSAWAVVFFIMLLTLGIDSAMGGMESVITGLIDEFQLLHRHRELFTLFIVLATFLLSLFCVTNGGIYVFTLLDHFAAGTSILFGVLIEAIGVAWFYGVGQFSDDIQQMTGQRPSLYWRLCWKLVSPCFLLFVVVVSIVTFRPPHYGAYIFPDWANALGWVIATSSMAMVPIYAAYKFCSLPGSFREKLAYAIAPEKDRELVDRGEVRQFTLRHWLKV

[13] = molecular target: CYP2C19 (Homo sapiens, UniProt P33261); experiment: in vitro; details: recombinant CYP2C19
Chain of CYP2C19 (P33261 whole entry): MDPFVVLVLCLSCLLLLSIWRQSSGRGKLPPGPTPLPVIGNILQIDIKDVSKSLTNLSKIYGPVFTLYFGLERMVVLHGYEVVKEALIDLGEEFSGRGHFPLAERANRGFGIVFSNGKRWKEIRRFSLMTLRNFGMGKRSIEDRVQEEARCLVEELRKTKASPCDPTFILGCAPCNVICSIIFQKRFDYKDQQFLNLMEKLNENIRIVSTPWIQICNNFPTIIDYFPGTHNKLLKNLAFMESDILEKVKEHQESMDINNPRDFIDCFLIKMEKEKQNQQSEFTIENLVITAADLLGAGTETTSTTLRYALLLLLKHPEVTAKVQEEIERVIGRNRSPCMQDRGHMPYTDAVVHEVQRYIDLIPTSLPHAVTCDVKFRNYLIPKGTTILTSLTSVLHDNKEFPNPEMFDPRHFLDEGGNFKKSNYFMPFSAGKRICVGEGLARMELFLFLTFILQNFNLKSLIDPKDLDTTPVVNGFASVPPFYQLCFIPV

Chain of CYP2C9 (P11712 whole entry): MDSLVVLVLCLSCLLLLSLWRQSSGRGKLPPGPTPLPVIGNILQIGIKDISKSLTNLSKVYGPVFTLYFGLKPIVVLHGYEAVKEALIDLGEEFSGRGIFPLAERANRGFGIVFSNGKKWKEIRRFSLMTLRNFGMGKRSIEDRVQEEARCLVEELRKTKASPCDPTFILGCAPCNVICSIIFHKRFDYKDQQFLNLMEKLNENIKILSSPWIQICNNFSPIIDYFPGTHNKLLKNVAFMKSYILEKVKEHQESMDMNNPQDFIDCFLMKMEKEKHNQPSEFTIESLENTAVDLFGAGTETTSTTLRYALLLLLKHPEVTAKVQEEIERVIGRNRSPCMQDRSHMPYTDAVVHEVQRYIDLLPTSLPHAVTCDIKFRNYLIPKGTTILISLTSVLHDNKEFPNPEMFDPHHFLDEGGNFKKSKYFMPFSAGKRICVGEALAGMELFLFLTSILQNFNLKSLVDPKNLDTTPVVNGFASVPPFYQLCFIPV

| SMILES | inhibition [1] | inhibition [3] | inhibition [4] | further results |
| --- | --- | --- | --- | --- |
| Cc1cccc(OC(CC2CNC2)c2ccc(F)c(F)c2)c1 (centres undefined) | 100% |  |  |  |
| Fc1cccc(OC(CC2CNC2)c2ccc(F)c(F)c2)c1 (centres undefined) | 94% |  |  |  |
| Clc1ccccc1OC(CC1CNC1)c1ccc2ccccc2c1 (centres undefined) | 25% |  |  |  |
| Fc1ccccc1OC(CC1CNC1)c1ccccc1 (centres undefined) | 64% |  |  |  |
| Cc1ccc(OC(CC2CNC2)c2ccc(F)c(F)c2)cc1 (centres undefined) | 83% |  |  |  |
| Nc1ccc(S(=O)(=O)Nc2ccnn2-c2ccccc2)cc1 [SULFAPHENAZOLE] |  |  |  | inhibition at 10 µM [2]: 11.3% |
| Clc1ccc(OC(CC2CNC2)c2ccc(Cl)c(Cl)c2)cc1 (centres undefined) | 41% | 100% | 100% |  |
| Cc1cccc(OC(CC2CNC2)c2ccc(Cl)c(Cl)c2)c1 (centres undefined) | 21% | 100% | 100% | remaining at 0.5 h, 1 µM [5]: 62% |
| Fc1cc(C(CC2CNC2)Oc2ccc(Cl)cc2)ccc1Cl (centres undefined) | 65% | 100% | 100% |  |
| Cc1ccccc1OC(CC1CNC1)c1ccc(Cl)c(Cl)c1 (centres undefined) | 25% | 100% | 100% | remaining at 0.5 h, 1 µM [5]: 89% |
| Fc1ccc(OC(CC2CNC2)c2ccc(F)c(F)c2)cc1F (centres undefined) | 63% |  |  |  |
| Fc1ccc(C(CC2CNC2)Oc2ccccc2)cc1F (centres undefined) | 48% |  |  |  |
| Clc1ccc([C@]23CNC[C@H]2C3)cc1Cl [AMITIFADINE] |  |  |  | remaining at 0.5 h, 1 µM [5]: 67% |
| Cc1ccccc1OC(CC1CNC1)c1ccccc1 (centres undefined) | 100% |  |  |  |
| Clc1ccc(C(CC2CNC2)Oc2ccccc2)cc1Cl (centres undefined) | 50% | 100% | 100% | remaining at 0.5 h, 1 µM [5]: 67%; Ratio IC50 [6]: > 7; Ratio IC50 [7]: > 7; Ratio IC50 [8]: > 7; IC50 [9]: 37.2 nM; IC50 [10]: 83.4 nM; Ratio IC50 [11]: > 7; IC50 [12]: 52.1 nM |
| Fc1ccc(C(CC2CNC2)Oc2cccc(Cl)c2)cc1F (centres undefined) | 77% |  |  |  |
| Cc1ccc(OC(CC2CNC2)c2ccc(Cl)c(Cl)c2)cc1 (centres undefined) | 59% | 100% | 100% |  |
| Fc1cc(C(CC2CNC2)Oc2ccccc2)ccc1Cl (centres undefined) | 80% | 100% | 100% | remaining at 0.5 h, 1 µM [5]: 41%; IC50 [9]: 10.6 nM; IC50 [10]: 51.3 nM; IC50 [12]: 33.1 nM |
| Clc1ccc(C(CC2CNC2)Oc2ccccc2Cl)cc1Cl (centres undefined) | 40% | 100% | 100% |  |
| Clc1ccc(COC(Cn2ccnc2)c2ccc(Cl)cc2Cl)c(Cl)c1 (centres undefined) [MICONAZOLE] |  |  |  | inhibition at 10 µM [13]: 8.6% |
| Fc1ccc(C(CC2CNC2)Oc2cccc(OC(F)(F)F)c2)cc1F (centres undefined) | 83% |  |  |  |
| FC(F)(F)Oc1ccc(OC(CC2CNC2)c2ccc(Cl)c(Cl)c2)cc1 (centres undefined) | 16% | 98% | 100% |  |
| Fc1ccc(OC(CC2CNC2)c2ccc(Cl)c(Cl)c2)cc1 (centres undefined) | 64% | 100% | 100% | Ratio IC50 [6]: > 7; Ratio IC50 [7]: > 7; Ratio IC50 [8]: > 7; IC50 [9]: 33.7 nM; IC50 [10]: 71.9 nM; Ratio IC50 [11]: > 7; IC50 [12]: 129 nM |
| Fc1ccc(OC(CC2CNC2)c2ccc(Cl)c(Cl)c2)cc1F (centres undefined) | 31% | 100% | 100% |  |
| Fc1ccc(C(CC2CNC2)Oc2ccc(Cl)cc2)cc1F (centres undefined) | 49% |  |  |  |
| Fc1ccc(C(CC2CNC2)Oc2ccccc2OC(F)(F)F)cc1F (centres undefined) | 19% |  |  |  |
